Laboratory results: patent publication US11390616B2 (BRISTOL-MYERS SQUIBB COMPANY, priority 2015, dated 2022)

target: T1, human APJ receptor (Homo sapiens, UniProt P35414); assay: Intracellular cAMP accumulation assay (APJ hcAMP, HTRF); type: cell-based; conditions: HEK293 cells stably expressing human APJ receptor; inhibition of forskolin-mediated cAMP production; read-out: APJ cAMP Potency range
T1 construct: expressed in transfected cells; host or cells: HEK293
T1 sequence (P35414 1-380): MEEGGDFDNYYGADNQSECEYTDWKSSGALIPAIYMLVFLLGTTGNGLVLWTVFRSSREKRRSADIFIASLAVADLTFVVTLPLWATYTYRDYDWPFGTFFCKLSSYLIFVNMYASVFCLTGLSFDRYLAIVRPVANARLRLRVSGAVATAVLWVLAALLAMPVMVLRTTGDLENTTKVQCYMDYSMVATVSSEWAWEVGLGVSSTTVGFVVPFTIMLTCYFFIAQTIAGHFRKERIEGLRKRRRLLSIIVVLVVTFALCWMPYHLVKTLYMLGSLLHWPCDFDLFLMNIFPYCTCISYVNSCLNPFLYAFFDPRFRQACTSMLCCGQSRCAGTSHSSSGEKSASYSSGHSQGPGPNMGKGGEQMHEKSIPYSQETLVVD
Procedure: Intracellular cAMP Accumulation Assay
HEK293 cells stably expressing human APJ receptor were used to assess the activity of compounds. Cultured cells were detached and resuspended in the cAMP Homogeneous Time-Resolved Fluorescence (HTRF) assay buffer (Cisbio cat; #62AM4PEJ). The assay was performed in 384-well assay plates (Perkin-Elmer; cat #6008289) according to assay protocol provided by the manufacturer. Serial dilutions of a compound together with assay buffer containing […] IBMX and 2 μM forskolin were added to each well containing 5,000 cells and incubated for 30 minutes at room temperature. Subsequently, cAMP D2 reagent was added in the lysis buffer followed by the EuK antibody (Cisbio; cat #62AM4PEJ) and incubated for 60 min. The fluorescence emission ratio was measured using fluorometer. The intracellular cAMP concentrations (compound-stimulated inhibition of forskolin-mediated cAMP production) were calculated by extrapolation from a standard curve using known cAMP concentrations. The EC50 values were obtained by fitting the data to a sigmoidal concentration-response curve with variable slope. The maximal achievable inhibition of forskolin-induced cAMP levels (Ymax) for each compound was expressed as relative percentage of inhibition attained using pyroglutamated apelin-13 ((Pyr1)apelin-13) peptide, which was set to 100%.
The examples disclosed below were tested in the APJ in vitro assays described above and were found having human APJ cyclic AMP (hcAMP) activity. The EC50 value of each compound is presented at the end of the example description.
The biological activity of the exemplified compounds of this invention determined by the assay described above is shown at the end of each example.

| Compound | EC50 |
| --- | --- |
| CCCCc1nc(O)c(Cc2ccc(OC)cc2)c(=O)n1-c1c(OC)cccc1OC [Example 2, 2-butyl-3-(2,6-dimethoxyphenyl)-6-hydroxy-5-[(4-methoxyphenyl)methyl]-3,4-dihydropyrimidin-4-one] | 10 to 100 nM |
| CCCCc1nc(O)c(Cc2ccc(OC)cc2)c(=O)n1-c1ccccc1OC [Example 3, 2-butyl-6-hydroxy-3-(2-methoxyphenyl)-5-[(4-methoxyphenyl)methyl]-3,4-dihydropyrimidin-4-one] | 100 to 300 nM |
| CCCCc1nc(O)c(Cc2ccc(-n3cccn3)cc2)c(=O)n1-c1c(OC)cccc1OC [Example 5, 2-butyl-3-(2,6-dimethoxyphenyl)-6-hydroxy-5-{[4-(1H-pyrazol-1-yl)phenyl]methyl}-3,4-dihydropyrimidin-4-one] | 0.01 to 10 nM |
| CCCCc1nc(O)c(Cc2ccc(-c3ncon3)cc2F)c(=O)n1-c1c(OC)cccc1OC [Example 6, 2-butyl-3-(2,6-dimethoxyphenyl)-5-{[2-fluoro-4-(1,2,4-oxadiazol-3-yl)phenyl]methyl}-6-hydroxy-3,4-dihydropyrimidin-4-one] | 0.01 to 10 nM |
| CCCCc1nc(O)c(Cc2ccc(S(C)(=O)=O)cc2)c(=O)n1-c1c(OC)cccc1OC [Example 7, 2-butyl-3-(2,6-dimethoxyphenyl)-6-hydroxy-5-[(4-methanesulfonylphenyl)methyl]-3,4-dihydropyrimidin-4-one] | 10 to 100 nM |
| CCCCc1nc(O)c(Cc2cc(C)on2)c(=O)n1-c1c(OC)cccc1OC [Example 8, 2-butyl-3-(2,6-dimethoxyphenyl)-6-hydroxy-5-[(5-methyl-1,2-oxazol-3-yl)methyl]-3,4-dihydropyrimidin-4-one] | 10 to 100 nM |
| CCCCc1nc(O)c(Cc2ccc(NC(C)=O)cc2)c(=O)n1-c1c(OC)cccc1OC [Example 9, N-(4-{[2-butyl-1-(2,6-dimethoxyphenyl)-4-hydroxy-6-oxo-1,6-dihydropyrimidin-5-yl]methyl}phenyl)acetamide] | 10 to 100 nM |
| CCCCc1nc(O)c(Cc2ccc(-c3nc(C)no3)cc2)c(=O)n1-c1c(OC)cccc1OC [Example 10, 2-butyl-3-(2,6-dimethoxyphenyl)-6-hydroxy-5-{[4-(3-methyl-1,2,4-oxadiazol-5-yl)phenyl]methyl}-3,4-dihydropyrimidin-4-one] | 0.01 to 10 nM |

Other lines, results leading:

| EC50 | Compound |
| --- | --- |
| 0.01 to 10 nM | CCCCc1nc(O)c(Cc2coc(-c3ccc(Cl)cc3)n2)c(=O)n1-c1c(OC)cccc1OC [Example 11, 2-butyl-5-{[2-(4-chlorophenyl)-1,3-oxazol-4-yl]methyl}-3-(2,6-dimethoxyphenyl)-6-hydroxy-3,4-dihydropyrimidin-4-one] |
| 0.01 to 10 nM | CCCCc1nc(O)c(Cc2ccc(-c3csnn3)cc2)c(=O)n1-c1c(OC)cccc1OC [Example 12, 2-butyl-3-(2,6-dimethoxyphenyl)-6-hydroxy-5-{[4-(1,2,3-thiadiazol-4-yl)phenyl]methyl}-3,4-dihydropyrimidin-4-one] |
| 0.01 to 10 nM | CCCCc1nc(O)c(Cc2ccc(-c3ncon3)c(F)c2)c(=O)n1-c1c(OC)cccc1OC [Example 13, 2-butyl-3-(2,6-dimethoxyphenyl)-5-{[3-fluoro-4-(1,2,4-oxadiazol-3-yl)phenyl]methyl}-6-hydroxy-3,4-dihydropyrimidin-4-one] |
| 0.01 to 10 nM | CCCCc1nc(O)c(Cc2ccc(-c3ccc(Cl)cc3)nc2)c(=O)n1-c1c(OC)cccc1OC [Example 14, 2-butyl-5-{[6-(4-chlorophenyl)pyridin-3-yl]methyl}-3-(2,6-dimethoxyphenyl)-6-hydroxy-3,4-dihydropyrimidin-4-one] |
| 10 to 100 nM | CCCCc1nc(O)c(Cc2ccc(C(=O)NCC)cc2)c(=O)n1-c1c(OC)cccc1OC [Example 15, 4-{[2-butyl-1-(2,6-dimethoxyphenyl)-4-hydroxy-6-oxo-1,6-dihydropyrimidin-5-yl]methyl}-N-ethylbenzamide] |
| 10 to 100 nM | COc1cccc(OC)c1-n1c(CCC(C)C)nc(O)c(Cc2ccc(NC(C)=O)cc2)c1=O [Example 16, N-(4-{[1-(2,6-dimethoxyphenyl)-4-hydroxy-2-(3-methylbutyl)-6-oxo-1,6-dihydropyrimidin-5-yl]methyl}phenyl)acetamide] |
| 10 to 100 nM | COc1cccc(OC)c1-n1c(CCC(C)C)nc(O)c(Cc2ccc(-c3ncon3)cc2)c1=O [Example 17, 3-(2,6-dimethoxyphenyl)-6-hydroxy-2-(3-methylbutyl)-5-{[4-(1,2,4-oxadiazol-3-yl)phenyl]methyl}-3,4-dihydropyrimidin-4-one] |
| 10 to 100 nM | COc1cccc(OC)c1-n1c(CCC(C)C)nc(O)c(Cc2coc(-c3ccc(Cl)cc3)n2)c1=O [Example 18, 5-{[2-(4-chlorophenyl)-1,3-oxazol-4-yl]methyl}-3-(2,6-dimethoxyphenyl)-6-hydroxy-2-(3-methylbutyl)-3,4-dihydropyrimidin-4-one] |
| 10 to 100 nM | CCCCc1nc(O)c(Cc2ccccc2)c(=O)n1-c1c(OC)cccc1OC [Example 19, 5-benzyl-2-butyl-3-(2,6-dimethoxyphenyl)-6-hydroxy-3,4-dihydropyrimidin-4-one] |
| 0.01 to 10 nM | CCCCc1nc(O)c(Cc2nc(-c3ccc(C(F)(F)F)cc3)no2)c(=O)n1-c1c(OC)cccc1OC [Example 20, 2-butyl-3-(2,6-dimethoxyphenyl)-6-hydroxy-5-({3-[4-(trifluoromethyl)phenyl]-1,2,4-oxadiazol-5-yl}methyl)-3,4-dihydropyrimidin-4-one] |
| 10 to 100 nM | COc1cccc(OC)c1-n1c(CCC(C)C)nc(O)c(Cc2nnc(-c3ccc(C)cc3)o2)c1=O [Example 21, 3-(2,6-dimethoxyphenyl)-6-hydroxy-2-(3-methylbutyl)-5-{[5-(4-methylphenyl)-1,3,4-oxadiazol-2-yl]methyl}-3,4-dihydropyrimidin-4-one] |
| 10 to 100 nM | CCCCc1nc(O)c(Cc2csc(-c3ccc(Cl)cc3)n2)c(=O)n1-c1c(OC)cccc1OC [Example 22, 2-butyl-5-{[2-(4-chlorophenyl)-1,3-thiazol-4-yl]methyl}-3-(2,6-dimethoxyphenyl)-6-hydroxy-3,4-dihydropyrimidin-4-one] |
| 10 to 100 nM | CCCCc1nc(O)c(Cc2csc(-c3ccc(C)cc3)n2)c(=O)n1-c1c(OC)cccc1OC [Example 23, 2-butyl-3-(2,6-dimethoxyphenyl)-6-hydroxy-5-{[2-(4-methylphenyl)-1,3-thiazol-4-yl]methyl}-3,4-dihydropyrimidin-4-one] |
| 0.01 to 10 nM | CCCCc1nc(O)c(Cc2ccn(-c3ccc(Cl)cc3)n2)c(=O)n1-c1c(OC)cccc1OC [Example 24, 2-butyl-5-{[1-(4-chlorophenyl)-1H-pyrazol-3-yl]methyl}-3-(2,6-dimethoxyphenyl)-6-hydroxy-3,4-dihydropyrimidin-4-one] |
| 0.01 to 10 nM | CCCCc1nc(O)c(Cc2cnn(-c3ccc(C)cc3)c2)c(=O)n1-c1c(OC)cccc1OC [Example 25, 2-butyl-3-(2,6-dimethoxyphenyl)-6-hydroxy-5-{[1-(4-methylphenyl)-1H-pyrazol-4-yl]methyl}-3,4-dihydropyrimidin-4-one] |

same assay, conditions: HEK293 cells stably expressing human APJ receptor; inhibition of forskolin-mediated cAMP production; read-out: Human APJ cAMP EC50 potency range

| EC50 | Compound |
| --- | --- |
| 10 to 100 nM | CCCCc1nc(=O)c(Cc2ccc(Br)cc2)c(O)n1[C@@H](CC)c1cccc(C#N)c1 [Compound 95i, (S)-3-(1-(5-(4-bromobenzyl)-2-butyl-6-hydroxy-4-oxopyrimidin-1(4H)-yl)propyl)benzonitrile] |
| 100 to 300 nM | CCOCc1nc(O)c(Cc2ccc(-n3ccccc3=O)cc2)c(=O)n1-c1c(OC)cccc1OC [Example 1] |
